Experimental data taken from PubChem BioAssay AID248 (DTP/NCI, 2004).
Values joined by “and” are separate entries in the source; they are usually repeats but may differ in a detail not shown here. Equal values may be shown once. Toxic doses and inconclusive results are not listed. Rule as the data show it: active = T/C of 150% or more; inactive = T/C below 125%.

System: L1210 leukemia ip in BDF1 mice, survival T/C
Test: NCI In Vivo Anticancer Drug Screen. Data for tumor model L1210 Leukemia (intraperitoneal) in B6D2F1 (BDF1) mice
Settings: endpoint: mean survival time, higher = longer survival
Outline: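 Tumor cells were implanted, animals were treated, and survival was followed. The result divides the treated measurement by the vehicle-control measurement.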

[1] = dose: 75.0 mg/kg/injection, schedule: Q01DX001 (ip), vehicle: saline
[2] = dose: 100.0 mg/kg/injection, schedule: Q01DX001 (ip), vehicle: saline with Tween-80
[3] = dose: 200.0 mg/kg/injection, schedule: Q01DX001 (ip), vehicle: saline with Tween-80
[4] = dose: 400.0 mg/kg/injection, schedule: Q01DX001 (ip), vehicle: saline with Tween-80
[5] = dose: 50.0 mg/kg/injection, schedule: Q01DX009 (ip), vehicle: saline with Tween-80
[6] = dose: 100.0 mg/kg/injection, schedule: Q04DX003 (ip), vehicle: saline with Tween-80
[7] = dose: 200.0 mg/kg/injection, schedule: Q04DX003 (ip), vehicle: saline with Tween-80
[8] = dose: 400.0 mg/kg/injection, schedule: Q01DX009 (ip), vehicle: saline with Tween-80
[9] = dose: 400.0 mg/kg/injection, schedule: Q04DX003 (ip), vehicle: saline with Tween-80
[10] = dose: 100.0 mg/kg/injection, schedule: Q01DX009 (ip), vehicle: Klucel (hydroxypropylcellulose) (HPC)
[11] = dose: 100.0 mg/kg/injection, schedule: Q04DX003 (ip), vehicle: Klucel (hydroxypropylcellulose) (HPC)
[12] = dose: 100.0 mg/kg/injection, schedule: Q01DX009 (ip), vehicle: saline with Tween-80
[13] = dose: 200.0 mg/kg/injection, schedule: Q01DX009 (ip), vehicle: saline with Tween-80

Measured: T/C

O=C(Nc1ccccc1)Oc1ccc(Br)cc1Br
inactive: [1] 94 % of control | dose: 150.0 mg/kg/injection, schedule: Q01DX001 (ip), vehicle: saline 89 % of control | dose: 300.0 mg/kg/injection, schedule: Q01DX001 (ip), vehicle: saline 94 % of control

CN(C)C(=S)Oc1ccccc1C1(C)OCCO1
inactive: [2] 97 % of control | [3] 98 % of control | [4] 96 % of control

CCOC(=O)C1CCc2c(ccc3ccccc23)N1 (stereo not given)
inactive: dose: 50.0 mg/kg/injection, schedule: Q01DX001 (ip), vehicle: carboxymethylcellulose (CMC) 100 % of control | dose: 50.0 mg/kg/injection, schedule: Q01DX009 (ip), vehicle: carboxymethylcellulose (CMC) 102 % of control and 91 % of control | dose: 50.0 mg/kg/injection, schedule: Q04DX002 (ip), vehicle: carboxymethylcellulose (CMC) 100 % of control and 106 % of control | dose: 50.0 mg/kg/injection, schedule: Q04DX003 (ip), vehicle: carboxymethylcellulose (CMC) 105 % of control | dose: 100.0 mg/kg/injection, schedule: Q01DX001 (ip), vehicle: carboxymethylcellulose (CMC) 105 % of control | dose: 100.0 mg/kg/injection, schedule: Q01DX009 (ip), vehicle: carboxymethylcellulose (CMC) 94 % of control and 112 % of control | dose: 100.0 mg/kg/injection, schedule: Q04DX002 (ip), vehicle: carboxymethylcellulose (CMC) 100 % of control and 106 % of control | dose: 100.0 mg/kg/injection, schedule: Q04DX003 (ip), vehicle: carboxymethylcellulose (CMC) 107 % of control | dose: 200.0 mg/kg/injection, schedule: Q01DX001 (ip), vehicle: carboxymethylcellulose (CMC) 103 % of control | dose: 200.0 mg/kg/injection, schedule: Q01DX009 (ip), vehicle: carboxymethylcellulose (CMC) 94 % of control and 102 % of control | dose: 200.0 mg/kg/injection, schedule: Q04DX002 (ip), vehicle: carboxymethylcellulose (CMC) 97 % of control and 102 % of control | dose: 200.0 mg/kg/injection, schedule: Q04DX003 (ip), vehicle: carboxymethylcellulose (CMC) 96 % of control

CCCCCCCCCCCC(=O)[O][Hg][c]1ccccc1
inactive: dose: 75.0 mg/kg/injection, schedule: Q01DX001 (ip), vehicle: other 91 % of control

Cc1cc(C)c(NC(=O)c2cc(C(=O)O)c(C(=O)Nc3c(C)cc(C)cc3C)cc2C(=O)O)c(C)c1
inactive: [5] 119 % of control and 91 % of control | [2] 104 % of control | dose: 100.0 mg/kg/injection, schedule: Q04DX002 (ip), vehicle: saline with Tween-80 104 % of control and 110 % of control | [6] 107 % of control | [3] 98 % of control | dose: 200.0 mg/kg/injection, schedule: Q04DX002 (ip), vehicle: saline with Tween-80 94 % of control and 113 % of control | [7] 100 % of control | [4] 102 % of control | [8] 87 % of control and 89 % of control | dose: 400.0 mg/kg/injection, schedule: Q04DX002 (ip), vehicle: saline with Tween-80 100 % of control | [9] 96 % of control

CCOC(=O)CCNC(COCc1ccccc1)C(=O)OCC (stereo not given)
inactive: dose: 100.0 mg/kg/injection, schedule: Q01DX001 (ip), vehicle: saline 98 % of control | dose: 200.0 mg/kg/injection, schedule: Q01DX001 (ip), vehicle: saline 95 % of control | dose: 400.0 mg/kg/injection, schedule: Q01DX001 (ip), vehicle: saline 106 % of control

CC(C)(C)C1(C)CNC(=O)O1 (stereo not given)
inactive: dose: 6.0 mg/kg/injection, schedule: Q01DX009 (ip), vehicle: Klucel (hydroxypropylcellulose) (HPC) 100 % of control | dose: 12.0 mg/kg/injection, schedule: Q01DX009 (ip), vehicle: Klucel (hydroxypropylcellulose) (HPC) 104 % of control | dose: 25.0 mg/kg/injection, schedule: Q01DX009 (ip), vehicle: Klucel (hydroxypropylcellulose) (HPC) 102 % of control | dose: 25.0 mg/kg/injection, schedule: Q04DX003 (ip), vehicle: Klucel (hydroxypropylcellulose) (HPC) 102 % of control | dose: 50.0 mg/kg/injection, schedule: Q01DX009 (ip), vehicle: Klucel (hydroxypropylcellulose) (HPC) 101 % of control | dose: 50.0 mg/kg/injection, schedule: Q04DX003 (ip), vehicle: Klucel (hydroxypropylcellulose) (HPC) 102 % of control | [10] 101 % of control | [11] 95 % of control and 89 % of control

O=c1ccccn1CC1(c2ccccc2)OCCO1
inactive: [10] 98 % of control | [11] 102 % of control | dose: 200.0 mg/kg/injection, schedule: Q01DX009 (ip), vehicle: Klucel (hydroxypropylcellulose) (HPC) 104 % of control | dose: 200.0 mg/kg/injection, schedule: Q04DX003 (ip), vehicle: Klucel (hydroxypropylcellulose) (HPC) 96 % of control | dose: 400.0 mg/kg/injection, schedule: Q01DX009 (ip), vehicle: Klucel (hydroxypropylcellulose) (HPC) 100 % of control | dose: 400.0 mg/kg/injection, schedule: Q04DX003 (ip), vehicle: Klucel (hydroxypropylcellulose) (HPC) 94 % of control

CC1=C(Cl)C(=O)C(Cl)=C(Cl)C1=O
inactive: [1] 103 % of control

Clc1ccc(-c2cc(=[N+]3CCCCC3)ss2)cc1
inactive: [12] 100 % of control | [6] 104 % of control | [7] 94 % of control

CCCCCCCC/C=C\CCCCCCCC(=O)OCCCCC
inactive: dose: 100.0 mg/kg/injection, schedule: Q01DX001 (ip), vehicle: Klucel (hydroxypropylcellulose) (HPC) 93 % of control | dose: 100.0 mg/kg/injection, schedule: Q01DX009 (ip), vehicle: saline sonified 102 % of control | [12] 108 % of control | [6] 93 % of control | dose: 200.0 mg/kg/injection, schedule: Q01DX001 (ip), vehicle: Klucel (hydroxypropylcellulose) (HPC) 92 % of control | dose: 200.0 mg/kg/injection, schedule: Q01DX009 (ip), vehicle: saline sonified 100 % of control | [13] 98 % of control | [7] 91 % of control | dose: 400.0 mg/kg/injection, schedule: Q01DX001 (ip), vehicle: Klucel (hydroxypropylcellulose) (HPC) 103 % of control | dose: 400.0 mg/kg/injection, schedule: Q01DX009 (ip), vehicle: saline sonified 93 % of control | [8] 95 % of control | [9] 95 % of control

CC=C(C)c1ccccc1 (mixture of isomers)
inactive: [5] 118 % of control | [12] 123 % of control | [13] 94 % of control

C[Si](C)(C)Oc1cccc(O[Si](C)(C)C)c1
inactive: [6] 95 % of control | [7] 96 % of control | [9] 93 % of control

COc1cc2ccc(C(C)N)cc2cc1OC (stereo not given)
inactive: dose: 50.0 mg/kg/injection, schedule: Q01DX009 (ip), vehicle: saline 100 % of control | dose: 100.0 mg/kg/injection, schedule: Q01DX009 (ip), vehicle: saline 105 % of control | dose: 100.0 mg/kg/injection, schedule: Q04DX003 (ip), vehicle: saline 110 % of control | dose: 200.0 mg/kg/injection, schedule: Q01DX009 (ip), vehicle: saline 103 % of control | dose: 200.0 mg/kg/injection, schedule: Q04DX003 (ip), vehicle: saline 117 % of control

CC(C)N(C(=O)Nc1ccc(Cl)cc1)C1CCCCC1
inactive: dose: 87.5 mg/kg/injection, schedule: Q04DX003 (ip), vehicle: carboxymethylcellulose (CMC) 101 % of control | dose: 175.0 mg/kg/injection, schedule: Q04DX003 (ip), vehicle: carboxymethylcellulose (CMC) 96 % of control | dose: 350.0 mg/kg/injection, schedule: Q04DX003 (ip), vehicle: carboxymethylcellulose (CMC) 95 % of control

CC12CCC(O)CC1CCC1C3CCCC(=O)C3CCC12 (stereo not given)
inactive: dose: 50.0 mg/kg/injection, schedule: Q01DX009 (sc), vehicle: steriod suspending solution 103 % of control | dose: 100.0 mg/kg/injection, schedule: Q01DX009 (sc), vehicle: steriod suspending solution 97 % of control | dose: 200.0 mg/kg/injection, schedule: Q01DX009 (sc), vehicle: steriod suspending solution 94 % of control
